Source: US10961231B2, “NTCP inhibitors” (National Institute of Biological Sciences, Beijing, priority 2018, dated 2021)

Biological target: T1, NTCP (Homo sapiens, UniProt Q14973)
T1 sequence (Q14973 1-349): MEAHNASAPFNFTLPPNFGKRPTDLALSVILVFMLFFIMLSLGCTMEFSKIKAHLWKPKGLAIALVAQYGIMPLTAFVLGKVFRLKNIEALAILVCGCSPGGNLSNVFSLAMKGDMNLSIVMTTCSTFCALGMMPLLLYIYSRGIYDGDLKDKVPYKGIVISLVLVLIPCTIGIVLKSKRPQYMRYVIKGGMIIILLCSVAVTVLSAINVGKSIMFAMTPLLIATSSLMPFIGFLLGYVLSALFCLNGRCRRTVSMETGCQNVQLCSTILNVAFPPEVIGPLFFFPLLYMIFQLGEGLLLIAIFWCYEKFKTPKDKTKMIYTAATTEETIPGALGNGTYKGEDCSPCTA
Experiment: [3H]-TCA uptake assay (NTCP inhibition)
Assay type: cell-based
Protocol: [^3H]-TCA uptake assay. PTH and HepG2-NTCP cells were cultured in PMM for 24 hours to induce NTCP expression. After treated by DMSO or test compounds for 2 hours, the cells were then incubated with 1 μM [^3H]-taurocholate acid dissolved in Na^+ Ringer's buffer (the concentration of Na was 145 mM) for 15 minutes at 37° C. Subsequently, the cells were washed once in phosphate-buffered saline (PBS) and lysed in 50 μL 1% TritonX-100 in H2O for 5 minutes at room temperature. The lysate were totally transferred into a liquid scintillation 96 well plate and mixed with 200 μL liquid scintillation cocktail (Ultima Gold XR, PerkinElmer). Liquid scintillation counting was performed on a PerkinElmer 1450 LSC liquid scintillation counter.

[1] = IC50, given as a range, marked * (asterisk not explained)
[2] = given as a range, marked * (asterisk not explained)
[3] = given as a range, assay not given
[4] = IC50, given as a range, assay not given

## CCC1NC(=O)C(C2OC(SCc3ccc(OC)cc3)CC2C)N(C)C(=O)C(C(C)C)N(C)C(=O)C(CC(C)C)N(C)C(=O)C(CC(C)C)N(C)C(=O)C(C)NC(=O)C(C)NC(=O)C(CC(C)C)N(C)C(=O)C(C(C)C)NC(=O)C(CC(C)C)N(C)C(=O)CN(C)C1=O (stereo not drawn) [Compound 83A-s]
[1]
  IC50: 1000 to 100000 nM

## CCC1NC(=O)C(C2OC(Oc3ccc(N4CCOCC4)cc3)CC2C)N(C)C(=O)C(C(C)C)N(C)C(=O)C(CC(C)C)N(C)C(=O)C(CC(C)C)N(C)C(=O)C(C)NC(=O)C(C)NC(=O)C(CC(C)C)N(C)C(=O)C(C(C)C)NC(=O)C(CC(C)C)N(C)C(=O)CN(C)C1=O (stereo not drawn) [Compound 3A-o]
[1]
  IC50: 1000 to 100000 nM

## CCC1NC(=O)C(C2OC(Sc3cccc(OCCN(C)C)c3)CC2C)N(C)C(=O)C(C(C)C)N(C)C(=O)C(CC(C)C)N(C)C(=O)C(CC(C)C)N(C)C(=O)C(C)NC(=O)C(C)NC(=O)C(CC(C)C)N(C)C(=O)C(C(C)C)NC(=O)C(CC(C)C)N(C)C(=O)CN(C)C1=O [Compound 14A, [2-((2R,3R)-5-(3-(2-(dimethylamino)ethoxy)phenylthio)-3-methyltetrahydrofuran-2-yl)-2-(methylamino)acetic acid]^1-cyclosporin A]
[1]
  IC50: 1000 to 100000 nM

## CCC1NC(=O)C(C2OC(Oc3cc(Cl)cc(OCC4CCN(C)CC4)c3)CC2C)N(C)C(=O)C(C(C)C)N(C)C(=O)C(CC(C)C)N(C)C(=O)C(CC(C)C)N(C)C(=O)C(C)NC(=O)C(C)NC(=O)C(CC(C)C)N(C)C(=O)C(C(C)C)NC(=O)C(CC(C)C)N(C)C(=O)CN(C)C1=O (stereo not drawn) [Compound 71-o]
[2]
  IC50: 1000 to 100000 nM

## CCC1NC(=O)C(C2OC(Sc3cccc(OCc4ccccc4)c3)CC2C)N(C)C(=O)C(C(C)C)N(C)C(=O)C(CC(C)C)N(C)C(=O)C(CC(C)C)N(C)C(=O)C(C)NC(=O)C(C)NC(=O)C(CC(C)C)N(C)C(=O)C(C(C)C)NC(=O)C(CC(C)C)N(C)C(=O)CN(C)C1=O [Compound 12A, [2-((2R,3R)-5-(3-(benzyloxy)phenylthio)-3-methyltetrahydrofuran-2-yl)-2-(methylamino)acetic acid]^1-cyclosporin A]
[3]
  IC50: 1 to 1000 nM

## CCC1NC(=O)C(C2OC(Sc3ccc(NC(C)=O)cc3)CC2C)N(C)C(=O)C(C(C)C)N(C)C(=O)C(CC(C)C)N(C)C(=O)C(CC(C)C)N(C)C(=O)C(C)NC(=O)C(C)NC(=O)C(CC(C)C)N(C)C(=O)C(C(C)C)NC(=O)C(CC(C)C)N(C)C(=O)CN(C)C1=O [Compound 4A, [2-((2R,3R)-5-(4-acetamidophenylthio)-3-methyltetrahydrofuran-2-yl)-2-(methylamino)acetic acid]^1-cyclosporin A]
[4]
  IC50: 1000 to 10000 nM

## CCCOc1cc(SC2CC(C)C(C3C(=O)NC(CC)C(=O)N(C)CC(=O)N(C)C(CC(C)C)C(=O)NC(C(C)C)C(=O)N(C)C(CC(C)C)C(=O)NC(C)C(=O)NC(C)C(=O)N(C)C(CC(C)C)C(=O)N(C)C(CC(C)C)C(=O)N(C)C(C(C)C)C(=O)N3C)O2)ccc1Cl [Compound 42A, [2-((2R,3R)-5-(4-chloro-3-propoxyphenylthio)-3-methyltetrahydrofuran-2-yl)-2-(methylamino)acetic acid]^1-cyclosporin A]
[3]
  IC50: 1 to 1000 nM

## CCC1NC(=O)C(C2OC(OCc3ccc(N4CCOCC4)cc3)CC2C)N(C)C(=O)C(C(C)C)N(C)C(=O)C(CC(C)C)N(C)C(=O)C(CC(C)C)N(C)C(=O)C(C)NC(=O)C(C)NC(=O)C(CC(C)C)N(C)C(=O)C(C(C)C)NC(=O)C(CC(C)C)N(C)C(=O)CN(C)C1=O [Compound 99A, [2-((2R,3R)-3-methyl-5-(4-morpholinobenzyloxy)tetrahydrofuran-2-yl)-2-(methylamino)acetic acid]^1-cyclosporin A]
[4]
  IC50: 1000 to 10000 nM

## CCC1NC(=O)C(C2OC(Sc3cc(OCCOC)cc(OCc4ccccc4)c3)CC2C)N(C)C(=O)C(C(C)C)N(C)C(=O)C(CC(C)C)N(C)C(=O)C(CC(C)C)N(C)C(=O)C(C)NC(=O)C(C)NC(=O)C(CC(C)C)N(C)C(=O)C(C(C)C)NC(=O)C(CC(C)C)N(C)C(=O)CN(C)C1=O (stereo not drawn) [Compound 11]
[2]
  IC50: 1000 to 100000 nM
